According to patent US20260042762A1 (Kymera Therapeutics, Inc., priority 2018, published 2026):

Target: T1, MerTK (Homo sapiens, UniProt Q12866)
T1 construct: endogenous in cells; host or cells: Jurkat cells
T1 sequence (Q12866 21-999): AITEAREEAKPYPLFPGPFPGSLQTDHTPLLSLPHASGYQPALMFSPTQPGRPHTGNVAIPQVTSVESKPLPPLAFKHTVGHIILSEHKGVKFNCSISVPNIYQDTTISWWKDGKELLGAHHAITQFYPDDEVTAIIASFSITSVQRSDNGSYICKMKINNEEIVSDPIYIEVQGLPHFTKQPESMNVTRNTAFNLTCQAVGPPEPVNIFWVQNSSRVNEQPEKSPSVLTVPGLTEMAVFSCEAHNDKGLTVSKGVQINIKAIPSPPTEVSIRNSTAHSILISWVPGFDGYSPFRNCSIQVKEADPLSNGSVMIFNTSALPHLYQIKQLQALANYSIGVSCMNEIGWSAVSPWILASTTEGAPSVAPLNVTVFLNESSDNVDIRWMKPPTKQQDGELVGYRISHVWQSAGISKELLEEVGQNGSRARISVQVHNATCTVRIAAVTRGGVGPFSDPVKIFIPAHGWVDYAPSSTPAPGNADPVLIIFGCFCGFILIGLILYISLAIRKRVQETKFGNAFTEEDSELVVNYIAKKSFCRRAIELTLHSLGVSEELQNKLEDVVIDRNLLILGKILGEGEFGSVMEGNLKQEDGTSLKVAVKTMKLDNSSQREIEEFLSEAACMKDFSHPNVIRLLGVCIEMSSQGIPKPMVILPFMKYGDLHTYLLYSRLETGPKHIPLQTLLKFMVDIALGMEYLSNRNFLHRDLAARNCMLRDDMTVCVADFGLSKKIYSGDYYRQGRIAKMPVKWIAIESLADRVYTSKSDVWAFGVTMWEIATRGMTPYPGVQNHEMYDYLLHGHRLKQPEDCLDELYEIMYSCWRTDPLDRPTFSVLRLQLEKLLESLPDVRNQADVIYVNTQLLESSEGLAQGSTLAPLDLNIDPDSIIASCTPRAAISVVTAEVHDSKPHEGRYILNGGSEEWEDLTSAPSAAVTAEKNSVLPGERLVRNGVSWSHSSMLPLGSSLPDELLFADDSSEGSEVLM
Assay: MerTk degradation in Jurkat cells (Western blot)
Format: cell-based
Settings: Jurkat, 4 h, 0.001-1 μM, 4 hour-incubation at 37° C., read-out: Jurkat Max % MerTK Degradation
How it was run: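 Jurkat cells treated 4 h at 37 °C with compound at 0.001-1 μM final. RIPA lysates quantified by BCA, then MerTK probed by Western blot against actin loading control with IR-dye secondaries and Odyssey imaging.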

Dmax	SMILES
> 50%	Cn1c(=O)n(C2CCC(=O)NC2=O)c2ccc(CCOCCN3CCC(N4CCN(Cc5ccc(-c6cn([C@H]7CC[C@H](O)CC7)c7nc(NCCC(F)(F)F)ncc67)cc5)CC4)C3)cc21 (stereo partly drawn) [I-132, 3-(3-methyl-2-oxo-5-[2-[2-(3-[4-[(4-[7-[trans-4-hydroxycyclohexyl]-2-[(3,3,3-trifluoropropyl)amino]-7H-pyrrolo[2,3-d]pyrimidin-5-yl]phenyl)methyl]piperazin-1-yl]pyrrolidin-1-yl)ethoxy]ethyl]-2,3-dihydro-1H-1,3-benzodiazol-1-yl)piperidine-2,6-dione]
< 20%	C[C@@H](CC(F)(F)F)Nc1ncc2c(-c3ccc(CN4CCN(CCCOCCCc5ccc6c(c5)n(C)c(=O)n6C5CCC(=O)N(C)C5=O)CC4)cc3)cn([C@H]3CC[C@H](O)CC3)c2n1 (stereo partly drawn) [I-225, 1-methyl-3-[3-methyl-2-oxo-5-[3-(3-[4-[(4-[7-[trans-4-hydroxycyclohexy1]-2-[[(2S)-4,4,4-trifluorobutan-2-yl]amino]pyrrolo[2,3-d]pyrimidin-5-yl]phenyl)methyl]piperazin-1-yl]propoxy)propyl]-1,3-benzodiazol-1-yl]piperidine-2,6-dione]
> 50%	Cn1c(=O)n(C2CCC(=O)NC2=O)c2ccc(CCCCN3CCCC(N4CCN(Cc5ccc(-c6cn([C@H]7CC[C@H](O)CC7)c7nc(NCCC(F)(F)F)ncc67)cc5)CC4)C3)cc21 (stereo partly drawn) [I-121, 3-[3-methyl-2-oxo-5-[4-(3-[4-[(4-[7-[trans-4-hydroxycyclohexyl]-2-[(3,3,3-trifluoropropyl)amino]-7H-pyrrolo[2,3-d]pyrimidin-5-yl]phenyl)methyl]piperazin-1-yl]piperidin-1-yl)butyl]-2,3-dihydro-1H-1,3-benzodiazol-1-yl]piperidine-2,6-dione]
> 50%	Cn1c(=O)n([C@H]2CCC(=O)NC2=O)c2ccc(CCCOCCOCCN3CCN(Cc4ccc(-c5cn([C@H]6CC[C@H](O)CC6)c6nc(NCCCF)ncc56)cc4)CC3)cc21 [I-88, 3-(5-[3-[2-(2-[4-[(4-[2-[(3-fluoropropyl)amino]-7-[trans-4-hydroxycyclohexyl]-7H-pyrrolo[2,3-d]pyrimidin-5yl]phenyl)methyl]piperazin-1-yl]ethoxy)ethoxy]propyl]-3-methyl-2-oxo-2,3-dihydro-1H-1,3-benzodiazol-1-yl)piperidine-2,6-dione; formic acid]
< 20%	CCC1CN(c2ccc(-c3ccnc(Nc4cc(OC)c(OC)c(OCCOCCOCCOCCOCCNc5cccc6c5C(=O)N(C5CCC(=O)NC5=O)C6=O)c4)n3)cn2)CCN1 (centres unmarked) [I-234]
> 50%	C[C@@H](c1ccc(-c2cn([C@H]3CC[C@H](O)CC3)c3nc(NCCC(F)(F)F)ncc23)cc1)N1CCN(CCCOCCCc2ccc3c(c2)n(C)c(=O)n3C2CCC(=O)NC2=O)CC1 (stereo partly drawn) [I-102, 3-[3-methyl-2-oxo-5-[3-(3-[4-[(1S)-1-(4-[7-[trans-4-hydroxycyclohexy1]-2-[(3,3,3-trifluoropropyl)amino]-7H-pyrrolo[2,3-d]pyrimidin-5-yl]phenyl)ethyl]piperazin-1-yl]propoxy)propyl]-2,3-dihydro-1H-1,3-benzodiazol-1-yl]piperidine-2,6-dione; formic acid]
> 50%	Cn1c(=O)n([C@H]2CCC(=O)NC2=O)c2ccc(Cn3cc(CN4CCN(Cc5ccc(-c6cn([C@H]7CC[C@H](O)CC7)c7nc(NCCC(F)(F)F)ncc67)cc5)CC4)nn3)cc21 [I-113, 3-(3-Methyl-2-oxo-5-[[4-([4-[(4-[7-[trans-4-hydroxycyclohexyl]-2-[(3,3,3-trifluoropropyl)amino]-7H-pyrrolo[2,3-d]pyrimidin-5-yl]phenyl)methyl]piperazin-1-yl]methyl)-1H-1,2,3-triazol-1-yl]methyl]-2,3-dihydro-1H-1,3-benzodiazol-1-yl)piperidine-2,6-dione]
20 to 50%	CN1CCN(Cc2ccc(-c3ccc(CO[C@H]4CCC[C@@H]4NC(=O)c4cc(-c5cnn(CCOCCCc6ccc7c(c6)n(C)c(=O)n7C6CCC(=O)NC6=O)c5)cnc4N)cc3)cc2)CC1 (stereo partly drawn) [I-217, 2-Amino-5-[1-(2-[3-[1-(2,6-dioxopiperidin-3-yl)-3-methyl-2-oxo-1,3-benzodiazol-5-yl]propoxy]ethyl)pyrazol-4-yl]-N-[(1S,2S)-2-([4-[(4-methylpiperazin-1-yl)methyl]-[1,1-biphenyl]-4-yl]methoxy)cyclopentyl]pyridine-3-carboxamide]
> 50%	Cn1c(=O)n([C@H]2CCC(=O)NC2=O)c2ccc(CCCOCCOCCN3CCN(Cc4ccc(-c5nn([C@H]6CC[C@H](O)CC6)c6nc(NCCC(F)(F)F)ncc56)cc4)CC3)cc21 [I-64, 3-(3-methyl-2-oxo-5-[3-[2-(2-[4-[(4-[1-[trans-4-hydroxycyclohexyl]-6-[(3,3,3-trifluoropropyl)amino]-1H-pyrazolo[3,4-d]pyrimidin-3-yl]phenyl)methyl]piperazin-1-yl]ethoxy)ethoxy]propyl]-2,3-dihydro-1H-1,3-benzodiazol-1-y1)piperidine-2,6-dione]

The next lines start with the compound.

SMILES	Dmax
Cc1ncsc1-c1ccc(CNC(=O)[C@@H]2C[C@@H](O)CN2C(=O)[C@@H](NC(=O)C2(F)CC2)C(C)(C)C)c(OCCOCCN2CCN(Cc3ccc(-c4cn([C@H]5CC[C@H](O)CC5)c5nc(NCCC(F)(F)F)ncc45)cc3)CC2)c1 [I-174]	20 to 50%
CCC1CN(c2ccc(-c3ccnc(Nc4cc(OC)c(OC)c(OCCOCCOCCOCCOCC(=O)N[C@H](C(=O)N5C[C@H](O)C[C@H]5C(=O)NCc5ccc(-c6scnc6C)cc5)C(C)(C)C)c4)n3)cn2)CCN1 (some centres unmarked) [I-233]	> 50%
Cn1c(=O)n([C@H]2CCC(=O)NC2=O)c2ccc(CCCOCCCN3CCN(Cc4ccc(-c5cn([C@H]6CC[C@H](O)CC6)c6nc(NCCC(F)F)ncc56)cc4)CC3)cc21 [I-115, 3-[5-[3-(3-[4-[(4-[2-[(3,3-difluoropropyl)amino]-7-[(1r,4r)-4-hydroxycyclohexy1]-7H-pyrrolo[2,3-d]pyrimidin-5-yl]phenyl)methyl]piperazin-1-yl]propoxy)propyl]-3-methyl-2-oxo-2,3-dihydro-1H-1,3-benzodiazol-1-yl]piperidine-2,6-dione; formic acid]	> 50%
Cc1ncsc1-c1ccc(CNC(=O)[C@@H]2C[C@@H](O)CN2C(=O)[C@@H](NC(=O)COCCOCCOCCOCCn2ccc3c(Nc4nc(N[C@@H]5CCCC[C@@H]5N)nnc4C(N)=O)cccc32)C(C)(C)C)cc1 [I-229]	< 20%
Cn1c(=O)n([C@H]2CCC(=O)NC2=O)c2ccc(C#CCOCCN3CC(N4CCN(Cc5ccc(-c6cn([C@H]7CC[C@H](O)CC7)c7nc(NCCC(F)(F)F)ncc67)cc5)CC4)C3)cc21 [I-92, 3-(3-methyl-2-oxo-5-[3-[2-(3-[4-[(4-[7-[trans-4-hydroxycyclohexy1]-2-[(3,3,3-trifluoropropyl)amino]-7H-pyrrolo[2,3-d]pyrimidin-5-yl]phenyl)methyl]piperazin-1-yl]azetidin-1-yl)ethoxy]prop-1-yn-1-y1]-2,3-dihydro-1H-1,3-benzodiazol-1-y1)piperidine-2,6-dione; formic acid]	> 50%
CCC[C@H](C)Nc1ncc2c(n1)n([C@H]1CC[C@H](O)CC1)cc2[C@H]1CC[C@H](CN2CCN(CCCO[C@H]3CCN(Cc4ccc5c(c4)n(C)c(=O)n5C4CCC(=O)NC4=O)C3)CC2)CC1 (stereo partly drawn) [I-211, 3-(3-methyl-2-oxo-5-[[(3S)-3-[3-(4-[[trans-4-[2-[(2S)-pentan-2-ylamino]-7-[trans-4-hydroxycyclohexyl]pyrrolo[2,3-d]pyrimidin-5-yl]cyclohexyl]methyl]piperazin-1-yl)propoxy]pyrrolidin-1-yl]methyl]-1,3-benzodiazol-1-yl)piperidine-2,6-dione]	> 50%
C[C@@H](CC(F)(F)F)Nc1ncc2c(-c3ccc(CN4CCN(CCCOC5CCN(Cc6ccc7c(c6)n(C)c(=O)n7C6CCC(=O)NC6=O)CC5)CC4)cc3)cn([C@H]3CC[C@H](O)CC3)c2n1 (stereo partly drawn) [I-197, 3-(3-methyl-2-oxo-5-[[4-(3-[4-[(4-[7-[trans-4-hydroxycyclohexyl]-2-[[(2S)-4,4,4-trifluorobutan-2-yl]amino]pyrrolo[2,3-d]pyrimidin-5-yl]phenyl)methyl]piperazin-1-yl]propoxy)piperidin-1-yl]methyl]-1,3-benzodiazol-1-y1)piperidine-2,6-dione]	> 50%
Cn1c(=O)n([C@H]2CCC(=O)NC2=O)c2cccc(CCCOCCCN3CCN(Cc4ccc(-c5cn([C@H]6CC[C@H](O)CC6)c6nc(NCCC(F)(F)F)ncc56)cc4)CC3)c21 [I-138, 3-[3-methyl-2-oxo-4-[3-(3-[4-[(4-[7-[trans-4-hydroxycyclohexy1]-2-[(3,3,3-trifluoropropyl)amino]pyrrolo[2,3-d]pyrimidin-5-yl]phenyl)methyl]piperazin-1-yl]propoxy)propyl]-1,3-benzodiazol-1-yl]piperidine-2,6-dione]	> 50%
